pIC50: −log10 of the molar value.
Columns and labels:
Cathepsin K [1] = biological target: T1, Cathepsin K (Homo sapiens, UniProt P43235); assay: Inhibition of human cathepsin K
T1 sequence (P43235 whole entry): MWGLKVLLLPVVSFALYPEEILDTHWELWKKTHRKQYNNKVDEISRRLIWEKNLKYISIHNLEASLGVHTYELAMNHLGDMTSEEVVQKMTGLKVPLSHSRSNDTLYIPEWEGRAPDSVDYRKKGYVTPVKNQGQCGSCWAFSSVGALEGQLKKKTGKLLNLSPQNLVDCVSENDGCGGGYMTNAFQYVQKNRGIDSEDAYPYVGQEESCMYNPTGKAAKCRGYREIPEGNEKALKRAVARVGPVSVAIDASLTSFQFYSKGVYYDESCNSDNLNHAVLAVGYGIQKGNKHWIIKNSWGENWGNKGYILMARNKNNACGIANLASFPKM

Cathepsin S [2] = biological target: Cathepsin S (Rattus norvegicus, UniProt Q02765); assay: Inhibition of rat spleen cathepsin S; format: tissue-based
Cathepsin B [3] = biological target: Cathepsin B (Mus musculus, UniProt P10605); assay: Inhibition of mouse recombinant cathepsin B
Cathepsin K [4] = biological target: T2, Cathepsin K (Mus musculus, UniProt P55097); assay: Inhibition of mouse recombinant cathepsin K
T2 sequence (P55097 whole entry): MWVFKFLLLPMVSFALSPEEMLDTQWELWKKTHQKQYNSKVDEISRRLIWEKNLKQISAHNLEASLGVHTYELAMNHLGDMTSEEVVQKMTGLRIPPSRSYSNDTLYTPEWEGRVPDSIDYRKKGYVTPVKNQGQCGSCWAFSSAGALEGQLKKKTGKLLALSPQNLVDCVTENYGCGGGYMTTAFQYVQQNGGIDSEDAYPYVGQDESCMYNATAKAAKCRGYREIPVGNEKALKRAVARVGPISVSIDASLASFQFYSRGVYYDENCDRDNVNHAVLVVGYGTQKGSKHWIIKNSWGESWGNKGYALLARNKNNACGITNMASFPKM

Procathepsin L [5] = biological target: Procathepsin L (Homo sapiens, UniProt P07711); assay: Inhibition of human cathepsin L
[6] = Bioavailability in Sprague-Dawley rat; format: ADME, organism-based; details: in vivo
[7] = Half life in Sprague-Dawley rat; format: ADME, organism-based; details: in vivo
Cathepsin B [8] = biological target: Cathepsin B (Homo sapiens, UniProt P07858); assay: Inhibition of human cathepsin B
[9] = Cmax in Sprague-Dawley rat; format: ADME, organism-based; details: in vivo
Cathepsin B [10] = biological target: Cathepsin B (Rattus norvegicus, UniProt P00787); assay: Inhibition of rat liver lysosomal cathepsin B
Cathepsin S [11] = biological target: Cathepsin S (Homo sapiens, UniProt P25774); assay: Inhibition of human cathepsin S
Procathepsin L [12] = biological target: T3, Procathepsin L (Mus musculus, UniProt P06797); assay: Inhibition of mouse recombinant cathepsin L
T3 sequence (P06797 whole entry): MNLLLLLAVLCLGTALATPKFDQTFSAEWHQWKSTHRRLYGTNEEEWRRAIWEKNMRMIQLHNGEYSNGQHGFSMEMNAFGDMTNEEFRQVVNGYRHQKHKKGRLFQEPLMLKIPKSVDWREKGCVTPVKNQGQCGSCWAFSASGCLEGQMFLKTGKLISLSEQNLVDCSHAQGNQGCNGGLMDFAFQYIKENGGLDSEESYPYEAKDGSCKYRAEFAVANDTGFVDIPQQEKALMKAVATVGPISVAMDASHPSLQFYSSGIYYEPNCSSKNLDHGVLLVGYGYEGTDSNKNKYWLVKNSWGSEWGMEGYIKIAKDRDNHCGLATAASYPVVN

Cathepsin S [13] = biological target: Cathepsin S (Mus musculus, UniProt O70370); assay: Inhibition of mouse recombinant cathepsin S
Procathepsin L [14] = biological target: T4, Procathepsin L (Rattus norvegicus, UniProt P07154); assay: Inhibition of rat liver lysosomal cathepsin L
T4 sequence (P07154 whole entry): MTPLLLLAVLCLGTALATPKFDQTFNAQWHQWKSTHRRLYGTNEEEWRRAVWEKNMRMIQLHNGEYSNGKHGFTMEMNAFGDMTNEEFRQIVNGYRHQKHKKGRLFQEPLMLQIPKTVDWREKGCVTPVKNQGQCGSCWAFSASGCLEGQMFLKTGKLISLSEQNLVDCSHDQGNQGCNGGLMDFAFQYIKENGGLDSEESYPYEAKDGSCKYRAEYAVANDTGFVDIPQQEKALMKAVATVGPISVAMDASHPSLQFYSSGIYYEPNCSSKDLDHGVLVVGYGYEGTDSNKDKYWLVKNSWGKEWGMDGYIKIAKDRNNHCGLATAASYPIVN

Hepatocyte = assay: Metabolic stability in rat hepatocytes after 2 hrs; format: ADME, cell-based
[15] = Inhibition of antigen presentation in mouse B cells; format: functional, cell-based
[16] = Cmax in po dosed Sprague-Dawley rat administered in 1:1 inwitor/tween 80 solution; format: ADME, organism-based; parameters: route oral; details: in vivo
Rattus norvegicus = assay: Half life in po dosed Sprague-Dawley rat administered in 1:1 inwitor/tween 80 solution; format: ADME, organism-based; details: in vivo
[17] = Bioavailability in po dosed Sprague-Dawley rat administered in 1:1 inwitor/tween 80 solution; format: ADME, organism-based; details: in vivo

Cathepsin S (Rattus norvegicus, UniProt Q02765), sequence (Q02765 whole entry): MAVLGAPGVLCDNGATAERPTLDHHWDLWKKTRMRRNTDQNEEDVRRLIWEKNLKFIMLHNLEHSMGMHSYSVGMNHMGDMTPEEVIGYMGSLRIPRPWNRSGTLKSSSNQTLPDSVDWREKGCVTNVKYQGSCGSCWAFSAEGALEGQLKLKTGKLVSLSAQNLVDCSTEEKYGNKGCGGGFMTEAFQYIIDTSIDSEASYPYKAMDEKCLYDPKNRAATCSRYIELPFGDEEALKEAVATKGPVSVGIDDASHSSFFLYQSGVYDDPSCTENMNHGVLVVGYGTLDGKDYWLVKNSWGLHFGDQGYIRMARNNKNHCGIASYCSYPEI
Procathepsin L (Homo sapiens, UniProt P07711), sequence (P07711 whole entry): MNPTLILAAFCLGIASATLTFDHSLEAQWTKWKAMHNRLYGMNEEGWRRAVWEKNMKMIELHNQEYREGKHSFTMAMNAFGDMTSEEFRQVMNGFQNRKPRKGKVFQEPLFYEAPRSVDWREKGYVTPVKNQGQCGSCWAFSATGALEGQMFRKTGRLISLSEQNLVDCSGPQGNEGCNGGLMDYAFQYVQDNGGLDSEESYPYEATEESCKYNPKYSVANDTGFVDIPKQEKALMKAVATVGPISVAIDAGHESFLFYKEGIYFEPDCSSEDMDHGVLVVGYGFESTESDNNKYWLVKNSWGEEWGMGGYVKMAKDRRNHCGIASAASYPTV
Cathepsin B (Mus musculus, UniProt P10605), sequence (P10605 whole entry): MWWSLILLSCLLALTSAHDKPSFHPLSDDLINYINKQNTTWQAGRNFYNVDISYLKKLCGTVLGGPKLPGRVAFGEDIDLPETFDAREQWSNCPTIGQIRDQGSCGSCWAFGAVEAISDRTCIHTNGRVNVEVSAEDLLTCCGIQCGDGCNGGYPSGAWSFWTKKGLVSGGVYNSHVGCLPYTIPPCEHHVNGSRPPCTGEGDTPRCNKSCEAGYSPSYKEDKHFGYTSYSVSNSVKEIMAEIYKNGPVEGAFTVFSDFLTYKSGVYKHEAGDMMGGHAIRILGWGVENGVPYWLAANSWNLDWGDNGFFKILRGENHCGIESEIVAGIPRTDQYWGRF
Cathepsin S (Mus musculus, UniProt O70370), sequence (O70370 whole entry): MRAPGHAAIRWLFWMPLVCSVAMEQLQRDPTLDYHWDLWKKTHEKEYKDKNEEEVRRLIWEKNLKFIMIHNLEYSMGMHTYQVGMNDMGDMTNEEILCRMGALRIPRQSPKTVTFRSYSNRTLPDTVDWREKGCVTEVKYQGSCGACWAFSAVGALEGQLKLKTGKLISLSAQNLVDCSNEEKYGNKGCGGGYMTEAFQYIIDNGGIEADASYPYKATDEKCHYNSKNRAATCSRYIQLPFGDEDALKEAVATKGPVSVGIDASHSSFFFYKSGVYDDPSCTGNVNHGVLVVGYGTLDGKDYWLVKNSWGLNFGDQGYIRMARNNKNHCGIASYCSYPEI
Cathepsin B (Rattus norvegicus, UniProt P00787), sequence (P00787 whole entry): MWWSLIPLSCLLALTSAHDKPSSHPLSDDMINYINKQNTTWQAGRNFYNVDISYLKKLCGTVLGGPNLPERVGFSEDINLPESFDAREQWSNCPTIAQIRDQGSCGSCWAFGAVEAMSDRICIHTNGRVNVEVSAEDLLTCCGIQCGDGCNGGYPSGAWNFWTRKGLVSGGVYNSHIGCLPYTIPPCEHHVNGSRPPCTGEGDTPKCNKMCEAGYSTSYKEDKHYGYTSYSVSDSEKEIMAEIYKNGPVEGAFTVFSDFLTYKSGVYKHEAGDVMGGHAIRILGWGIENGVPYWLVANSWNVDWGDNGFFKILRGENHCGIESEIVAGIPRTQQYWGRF
Cathepsin S (Homo sapiens, UniProt P25774), sequence (P25774 whole entry): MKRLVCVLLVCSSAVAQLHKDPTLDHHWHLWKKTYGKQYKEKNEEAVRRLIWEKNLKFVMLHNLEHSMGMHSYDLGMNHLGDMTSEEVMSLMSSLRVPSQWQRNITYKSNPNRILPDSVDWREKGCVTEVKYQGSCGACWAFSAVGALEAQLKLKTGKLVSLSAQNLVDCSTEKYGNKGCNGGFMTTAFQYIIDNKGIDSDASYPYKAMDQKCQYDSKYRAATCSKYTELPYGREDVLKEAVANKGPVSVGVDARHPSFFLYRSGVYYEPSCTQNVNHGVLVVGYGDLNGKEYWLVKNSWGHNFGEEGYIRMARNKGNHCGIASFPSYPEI

| Compound | pIC50 (Cathepsin K [1]) | pIC50 (Cathepsin S [2]) | pIC50 (Cathepsin B [3]) | pIC50 (Cathepsin K [4]) | pIC50 (Procathepsin L [5]) | bioavailability [6] [%] | half-life [7] [h] | pIC50 (Cathepsin B [8]) | Cmax [9] [nM] | pIC50 (Cathepsin B [10]) | pIC50 (Cathepsin S [11]) | pIC50 (Procathepsin L [12]) | pIC50 (Cathepsin S [13]) | pIC50 (Procathepsin L [14]) | Stability (Hepatocyte) | pIC50 [15] | Cmax [16] [nM] | t1/2 (Rattus norvegicus) [h] | bioavailability [17] [%] |
| --- | --- | --- | --- | --- | --- | --- | --- | --- | --- | --- | --- | --- | --- | --- | --- | --- | --- | --- | --- |
| N#CC1(NC(=O)[C@H](CS(=O)(=O)CC2CC2)N[C@@H](c2ccc(F)cc2)C(F)(F)F)CC1 | 5.70 | 6.12 | 6.60 | < 5.00 | 6.73 | 40 | 3.8 | 6.00 | 2800 | 6.57 | 9.30 | 6.48 | 9.05 | 6.13 |  |  |  |  |  |
| N#CC1(NC(=O)[C@H](CS(=O)(=O)c2cccc(Br)c2)N[C@@H](c2ccccc2)C(F)(F)F)CC1 | 6.57 | 7.36 | 5.40 | 5.59 | 7.64 |  |  | 5.18 |  | 5.33 | 9.70 | 7.05 | > 9.70 | 6.88 |  |  |  |  |  |
| N#CC1(NC(=O)[C@H](CS(=O)(=O)Cc2cccc(F)c2F)N[C@@H](c2ccccc2)C(F)(F)F)CC1 | < 5.00 |  |  |  | 6.98 |  |  | 5.73 |  |  | 9.52 |  |  |  |  |  |  |  |  |
| CC(C)CS(=O)(=O)C[C@H](N[C@@H](c1ccc(F)cc1)C(F)(F)F)C(=O)NC1(C#N)CC1 | 5.51 |  |  |  | 6.88 | 5 | 1.6 | 6.47 | 140 |  | 9.40 |  |  |  |  |  |  |  |  |
| CS(=O)(=O)C[C@H](N[C@@H](c1ccc(Br)cc1)C(F)(F)F)C(=O)NC1(C#N)CC1 | 7.51 | 5.98 | 7.16 | 5.99 |  | 40 | 11 |  | 3300 | 7.18 | 7.96 | 5.65 | 8.80 | 5.89 | Stable |  |  |  |  |
| N#CC1(NC(=O)[C@H](CS(=O)(=O)Cc2ccc(F)cc2)N[C@@H](c2ccccc2)C(F)(F)F)CC1 | < 5.00 |  |  |  | 7.07 |  |  | 5.56 |  |  | 9.30 |  |  |  |  |  |  |  |  |
| N#CC1(NC(=O)[C@H](CS(=O)(=O)Cc2cccc(F)c2F)N[C@@H](c2ccc(F)cc2)C(F)(F)F)CC1 | < 5.00 | 7.68 | 6.42 | < 5.00 | 6.92 | 3 | 1.2 | 5.88 | 46 | 6.42 | 9.52 | 6.18 | 9.10 | 6.40 |  |  |  |  |  |
| N#CC1(NC(=O)[C@H](CS(=O)(=O)c2nccs2)N[C@@H](c2ccccc2)C(F)(F)F)CC1 | 6.42 |  |  |  | 6.74 |  |  | 5.44 |  |  | 8.30 |  |  |  |  |  |  |  |  |
| N#CC1(NC(=O)[C@H](CS(=O)(=O)Cc2c(F)cccc2F)N[C@@H](c2ccc(F)cc2)C(F)(F)F)CC1 | < 5.00 |  |  |  | 6.60 |  |  | < 5.00 |  |  | 9.15 |  |  |  |  |  |  |  |  |
| C[S+]([O-])C[C@H](N[C@@H](c1ccc(Br)cc1)C(F)(F)F)C(=O)NC1(C#N)CC1 (some centres undefined) | 6.19 |  |  |  | < 5.00 |  |  | 5.10 |  |  | 5.66 |  |  |  |  |  |  |  |  |
| CC(C)C[C@H](N[C@@H](c1ccc(-c2ccc(S(C)(=O)=O)cc2)cc1)C(F)(F)F)C(=O)NCC#N | 9.70 | 5.61 | 6.27 | 7.37 |  |  |  |  |  | 6.03 |  | 6.60 | 6.60 | 7.05 |  | 5.32 |  |  |  |
| CC(C)(c1ccc(F)cc1)S(=O)(=O)C[C@H](N[C@@H](c1ccc(F)cc1)C(F)(F)F)C(=O)NC1(C#N)CC1 | < 5.00 |  |  |  | < 5.00 |  |  | < 5.00 |  |  | 6.20 |  |  |  |  |  |  |  |  |
| N#CC1(NC(=O)[C@H](CS(=O)(=O)c2ccc(Cl)c(Cl)c2)N[C@@H](c2ccccc2)C(F)(F)F)CC1 | 6.50 | 7.82 | 5.52 | 5.83 | 7.62 | 9 | 1.7 | 5.07 | 88 | 5.24 | 9.70 | 7.23 | > 9.70 | 7.32 |  |  | 660 | 1.7 | 30 |
